Measurements from ChEMBL document CHEMBL4507292 (2021).

Columns and labels:
[1] = biological target: Neuropeptide Y receptor type 2 (Homo sapiens) (UniProt P49146); assay: Inhibition of Neuropeptide Y Y2 at 10 µM in the Eurofins-Panlabs radioligand binding assay (Eurofins_assay_257110); settings: Compound concentration 10.0 uM
[2] = biological target: Mitogen-activated protein kinase 3 (Homo sapiens) (UniProt P27361); assay: Inhibition of Protein Serine/Threonine Kinase, MAPK3 (ERK1) at 10 µM in the Eurofins-Panlabs enzyme assay (Eurofins_assay_171000); settings: Compound concentration […]
[3] = biological target: T1, Alpha-2B adrenergic receptor (Homo sapiens) (UniProt P18089); settings: Compound concentration 10.0 uM
T1 sequence (whole entry): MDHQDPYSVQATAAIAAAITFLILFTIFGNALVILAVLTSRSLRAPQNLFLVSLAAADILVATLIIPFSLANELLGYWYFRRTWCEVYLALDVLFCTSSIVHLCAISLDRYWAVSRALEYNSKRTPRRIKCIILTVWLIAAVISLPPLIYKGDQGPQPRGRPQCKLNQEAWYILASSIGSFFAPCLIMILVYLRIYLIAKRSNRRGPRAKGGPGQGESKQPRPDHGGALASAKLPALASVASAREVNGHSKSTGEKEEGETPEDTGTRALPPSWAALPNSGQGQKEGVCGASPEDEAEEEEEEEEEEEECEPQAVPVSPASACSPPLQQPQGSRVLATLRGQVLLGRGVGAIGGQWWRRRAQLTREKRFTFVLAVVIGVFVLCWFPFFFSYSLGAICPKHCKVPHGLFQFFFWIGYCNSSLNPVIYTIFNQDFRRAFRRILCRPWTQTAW

[4] = biological target: Prostaglandin E2 receptor EP1 subtype (Homo sapiens) (UniProt P34995); assay: Prostanoid EP1 Eurofins-Panlabs radioligand binding assay; settings: Compound concentration 10.0 uM
[5] = biological target: Melanocortin receptor 5 (Homo sapiens) (UniProt P33032); assay: Inhibition of Melanocortin MC5 at 10 µM in the Eurofins-Panlabs radioligand binding assay (Eurofins_assay_251400); parameters: ligand concentration 0.035 nM; settings: Compound concentration 10.0 uM
[6] = biological target: Vasopressin V1a receptor (Homo sapiens) (UniProt P37288); settings: Compound concentration 10.0 uM
[7] = biological target: 5-hydroxytryptamine receptor 6 (Homo sapiens) (UniProt P50406); assay: Inhibition of Serotonin (5-Hydroxytryptamine) 5-HT6 at 10 µM in the Eurofins-Panlabs radioligand binding assay (Eurofins_assay_272200)
Oryctolagus cuniculus = organism: Oryctolagus cuniculus; assay: Inhibition of Purinergic P2X at 10 µM in the Eurofins-Panlabs radioligand binding assay (Eurofins_assay_268700); assay type: protein assay; settings: Compound concentration 10.0 uM
[8] = biological target: D(2) dopamine receptor (Homo sapiens) (UniProt P14416); settings: Compound concentration 10.0 uM
[9] = biological target: Synaptic vesicular amine transporter (Homo sapiens) (UniProt Q05940); settings: Oryctolagus cuniculus
[10] = biological target: Epidermal growth factor receptor (Homo sapiens, UniProt P00533); assay: Protein Tyrosine Kinase, EGF Receptor Eurofins-Panlabs enzyme assay; parameters: substrate with concentration 10 µg/mL Poly(Glu:Tyr), incubation time 60 min, incubation temperature 25 °C
[11] = biological target: Polyunsaturated fatty acid 5-lipoxygenase (Homo sapiens) (UniProt P09917); assay: Lipoxygenase 5-LO Eurofins-Panlabs enzyme assay; settings: Compound concentration 10.0 uM
[12] = biological target: Neurotensin receptor type 1 (Homo sapiens, UniProt P30989); assay: Neurotensin NT1 Eurofins-Panlabs radioligand binding assay; parameters: ligand concentration 0.02 nM, non-specific ligand with concentration 1 µM Neurotensin, incubation time 45 min, incubation temperature 25 °C
[13] = biological target: Endothelin-converting enzyme 1 (Homo sapiens) (UniProt P42892); assay: Peptidase, Endothelin Converting Enzyme-1 (ECE-1) Eurofins-Panlabs enzyme assay; settings: Compound concentration 10.0 uM
[14] = biological target: Voltage-dependent N-type calcium channel subunit alpha-1B (Homo sapiens) (UniProt Q00975); assay: Inhibition of Calcium Channel N-Type at 10 µM in the Eurofins-Panlabs radioligand binding assay (Eurofins_assay_216000); settings: Rattus norvegicus; Compound concentration 10.0 uM

Chain of Epidermal growth factor receptor (P00533 whole entry): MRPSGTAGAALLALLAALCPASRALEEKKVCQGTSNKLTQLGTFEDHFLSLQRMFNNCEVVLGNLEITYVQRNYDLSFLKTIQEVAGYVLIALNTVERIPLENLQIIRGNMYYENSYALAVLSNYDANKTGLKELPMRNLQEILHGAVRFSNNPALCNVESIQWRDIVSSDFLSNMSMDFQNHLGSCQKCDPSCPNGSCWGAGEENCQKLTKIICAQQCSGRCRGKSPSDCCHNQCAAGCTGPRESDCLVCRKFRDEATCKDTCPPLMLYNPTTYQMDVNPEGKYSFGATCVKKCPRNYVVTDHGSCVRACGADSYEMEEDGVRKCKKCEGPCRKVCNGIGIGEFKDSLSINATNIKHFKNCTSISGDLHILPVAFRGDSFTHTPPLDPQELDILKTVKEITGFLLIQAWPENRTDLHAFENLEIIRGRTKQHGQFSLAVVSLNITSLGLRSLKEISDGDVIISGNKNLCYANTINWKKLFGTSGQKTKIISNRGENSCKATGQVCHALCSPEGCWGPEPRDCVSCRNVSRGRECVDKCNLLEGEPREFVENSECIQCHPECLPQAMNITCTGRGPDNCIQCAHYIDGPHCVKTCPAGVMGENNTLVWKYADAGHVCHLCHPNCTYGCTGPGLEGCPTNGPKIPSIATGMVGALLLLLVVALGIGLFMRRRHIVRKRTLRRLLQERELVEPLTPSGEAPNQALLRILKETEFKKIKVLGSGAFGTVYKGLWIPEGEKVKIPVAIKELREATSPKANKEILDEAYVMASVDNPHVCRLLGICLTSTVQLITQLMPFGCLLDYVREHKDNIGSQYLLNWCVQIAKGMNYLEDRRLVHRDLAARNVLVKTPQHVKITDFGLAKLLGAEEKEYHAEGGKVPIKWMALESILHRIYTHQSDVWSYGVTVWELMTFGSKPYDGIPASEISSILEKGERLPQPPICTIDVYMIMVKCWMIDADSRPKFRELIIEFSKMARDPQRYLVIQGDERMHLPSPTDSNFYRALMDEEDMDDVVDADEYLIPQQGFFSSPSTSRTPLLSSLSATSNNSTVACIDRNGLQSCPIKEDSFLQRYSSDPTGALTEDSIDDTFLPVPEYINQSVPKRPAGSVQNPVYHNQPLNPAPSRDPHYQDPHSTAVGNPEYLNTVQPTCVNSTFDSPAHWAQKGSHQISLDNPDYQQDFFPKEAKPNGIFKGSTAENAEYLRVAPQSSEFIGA
Chain of Neurotensin receptor type 1 (P30989 whole entry): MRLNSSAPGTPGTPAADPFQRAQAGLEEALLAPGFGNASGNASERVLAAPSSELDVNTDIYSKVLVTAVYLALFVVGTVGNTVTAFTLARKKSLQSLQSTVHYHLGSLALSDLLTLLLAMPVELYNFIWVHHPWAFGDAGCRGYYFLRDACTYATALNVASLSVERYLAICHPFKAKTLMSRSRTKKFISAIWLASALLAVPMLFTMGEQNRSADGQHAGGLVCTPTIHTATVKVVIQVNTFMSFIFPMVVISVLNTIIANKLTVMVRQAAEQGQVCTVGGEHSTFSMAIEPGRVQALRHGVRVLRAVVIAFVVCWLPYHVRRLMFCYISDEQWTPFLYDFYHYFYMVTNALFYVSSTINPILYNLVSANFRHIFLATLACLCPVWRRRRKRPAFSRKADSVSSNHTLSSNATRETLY
Chain of Synaptic vesicular amine transporter (Homo sapiens) (Q05940 whole entry): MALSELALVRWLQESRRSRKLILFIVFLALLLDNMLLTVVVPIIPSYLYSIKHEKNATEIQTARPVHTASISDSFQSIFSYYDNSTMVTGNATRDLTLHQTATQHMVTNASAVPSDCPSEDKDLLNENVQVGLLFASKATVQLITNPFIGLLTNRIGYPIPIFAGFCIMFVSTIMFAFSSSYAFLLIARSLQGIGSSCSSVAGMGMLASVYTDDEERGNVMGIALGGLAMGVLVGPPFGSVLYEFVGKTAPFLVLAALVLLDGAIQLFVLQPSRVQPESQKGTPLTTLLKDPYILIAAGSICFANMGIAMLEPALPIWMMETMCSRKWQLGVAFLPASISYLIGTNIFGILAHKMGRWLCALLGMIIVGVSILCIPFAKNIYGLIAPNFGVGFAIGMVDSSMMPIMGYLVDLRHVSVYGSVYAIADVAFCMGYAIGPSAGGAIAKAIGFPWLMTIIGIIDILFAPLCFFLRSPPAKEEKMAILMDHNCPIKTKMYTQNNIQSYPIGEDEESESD
Chain of 5-hydroxytryptamine receptor 6 (Homo sapiens) (P50406 whole entry): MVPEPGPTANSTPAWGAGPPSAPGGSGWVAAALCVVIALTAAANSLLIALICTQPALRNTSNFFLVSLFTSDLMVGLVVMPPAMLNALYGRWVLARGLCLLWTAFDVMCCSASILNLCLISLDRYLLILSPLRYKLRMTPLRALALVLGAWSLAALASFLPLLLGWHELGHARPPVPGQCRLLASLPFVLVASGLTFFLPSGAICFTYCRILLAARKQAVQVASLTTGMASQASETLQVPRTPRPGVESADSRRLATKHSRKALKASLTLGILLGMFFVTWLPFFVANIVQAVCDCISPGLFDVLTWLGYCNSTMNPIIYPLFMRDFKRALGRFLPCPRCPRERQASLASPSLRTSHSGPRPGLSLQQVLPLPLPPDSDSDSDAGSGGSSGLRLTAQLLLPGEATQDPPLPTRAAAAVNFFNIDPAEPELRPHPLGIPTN
Chain of Polyunsaturated fatty acid 5-lipoxygenase (Homo sapiens) (P09917 whole entry): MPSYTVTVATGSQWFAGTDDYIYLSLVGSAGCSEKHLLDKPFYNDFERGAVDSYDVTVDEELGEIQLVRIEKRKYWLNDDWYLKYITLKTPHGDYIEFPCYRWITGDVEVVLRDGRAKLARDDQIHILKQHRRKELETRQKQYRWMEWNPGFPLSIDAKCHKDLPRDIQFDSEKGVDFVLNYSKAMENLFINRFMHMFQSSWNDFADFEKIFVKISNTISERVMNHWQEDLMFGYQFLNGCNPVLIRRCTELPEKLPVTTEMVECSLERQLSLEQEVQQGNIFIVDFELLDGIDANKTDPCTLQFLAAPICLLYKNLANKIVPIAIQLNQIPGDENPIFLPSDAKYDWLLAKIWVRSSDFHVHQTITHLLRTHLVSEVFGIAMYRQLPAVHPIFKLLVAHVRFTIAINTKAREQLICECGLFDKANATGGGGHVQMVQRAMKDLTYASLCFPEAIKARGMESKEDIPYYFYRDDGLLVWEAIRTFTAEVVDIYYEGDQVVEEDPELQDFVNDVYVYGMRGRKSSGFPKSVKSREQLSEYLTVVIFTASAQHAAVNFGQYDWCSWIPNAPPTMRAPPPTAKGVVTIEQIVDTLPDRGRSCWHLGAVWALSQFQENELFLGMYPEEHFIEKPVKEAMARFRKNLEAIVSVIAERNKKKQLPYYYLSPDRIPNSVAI
Chain of Vasopressin V1a receptor (Homo sapiens) (P37288 whole entry, looked up): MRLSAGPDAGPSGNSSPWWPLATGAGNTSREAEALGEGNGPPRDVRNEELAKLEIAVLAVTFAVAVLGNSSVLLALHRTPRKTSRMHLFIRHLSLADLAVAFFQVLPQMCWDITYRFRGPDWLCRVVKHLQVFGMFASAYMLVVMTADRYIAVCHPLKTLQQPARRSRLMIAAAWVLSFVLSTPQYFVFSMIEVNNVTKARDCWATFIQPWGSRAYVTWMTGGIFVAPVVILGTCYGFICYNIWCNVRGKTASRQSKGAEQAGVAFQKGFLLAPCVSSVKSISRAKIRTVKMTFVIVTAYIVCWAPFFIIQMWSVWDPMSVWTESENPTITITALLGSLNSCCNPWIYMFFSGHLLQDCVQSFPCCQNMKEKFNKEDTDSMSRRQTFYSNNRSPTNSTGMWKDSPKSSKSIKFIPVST
Chain of D(2) dopamine receptor (Homo sapiens) (P14416 whole entry): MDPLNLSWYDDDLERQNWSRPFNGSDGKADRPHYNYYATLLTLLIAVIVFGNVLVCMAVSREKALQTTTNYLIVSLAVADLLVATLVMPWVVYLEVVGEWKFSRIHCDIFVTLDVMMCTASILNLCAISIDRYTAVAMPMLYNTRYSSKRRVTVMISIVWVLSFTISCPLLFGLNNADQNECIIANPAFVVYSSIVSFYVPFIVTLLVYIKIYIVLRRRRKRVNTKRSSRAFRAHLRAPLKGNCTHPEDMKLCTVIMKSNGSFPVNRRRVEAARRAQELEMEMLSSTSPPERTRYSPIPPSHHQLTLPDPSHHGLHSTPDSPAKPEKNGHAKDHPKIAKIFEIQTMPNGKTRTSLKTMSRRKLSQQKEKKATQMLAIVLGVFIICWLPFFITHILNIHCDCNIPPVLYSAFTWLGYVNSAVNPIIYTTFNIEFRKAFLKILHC
Chain of Melanocortin receptor 5 (Homo sapiens) (P33032 whole entry): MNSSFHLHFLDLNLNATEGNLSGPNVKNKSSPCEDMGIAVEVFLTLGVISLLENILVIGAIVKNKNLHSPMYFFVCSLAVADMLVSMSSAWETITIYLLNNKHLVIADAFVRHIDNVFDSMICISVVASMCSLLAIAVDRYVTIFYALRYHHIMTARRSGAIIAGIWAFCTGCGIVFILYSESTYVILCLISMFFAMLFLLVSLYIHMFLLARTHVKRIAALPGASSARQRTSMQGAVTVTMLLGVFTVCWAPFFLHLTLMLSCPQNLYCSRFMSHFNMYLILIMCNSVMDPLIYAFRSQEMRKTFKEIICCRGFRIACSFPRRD
Chain of Mitogen-activated protein kinase 3 (Homo sapiens) (P27361 whole entry): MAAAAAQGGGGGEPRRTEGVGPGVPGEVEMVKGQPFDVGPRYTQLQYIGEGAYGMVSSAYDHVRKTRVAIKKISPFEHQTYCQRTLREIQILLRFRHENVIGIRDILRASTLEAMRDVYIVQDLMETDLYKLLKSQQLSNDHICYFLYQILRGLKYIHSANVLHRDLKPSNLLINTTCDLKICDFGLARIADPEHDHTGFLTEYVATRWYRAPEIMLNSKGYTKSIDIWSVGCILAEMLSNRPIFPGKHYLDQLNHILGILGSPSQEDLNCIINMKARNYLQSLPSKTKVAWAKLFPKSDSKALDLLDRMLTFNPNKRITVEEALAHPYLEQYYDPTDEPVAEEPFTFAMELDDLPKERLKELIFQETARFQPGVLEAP

`O=C(O)c1cc(-c2ccc(C3CCNCC3)cc2)c2ccc(-c3ccc(C(F)(F)F)cc3)cc2c1` [PPTN] showed an inhibition [1] of -1%, an inhibition [2] of -5% and an inhibition [3] of -1%. It also gave an inhibition [4] of 4%, an inhibition [5] of 41% and an inhibition [6] of 3%. The inhibition [7] was 7%, the inhibition (Oryctolagus cuniculus) was 14% and the inhibition [8] was 28%. For the same compound, the inhibition ([9]; Compound concentration 0.01 uM) was -8%, the inhibition ([9]; Compound concentration 0.1 uM) was 8% and the inhibition ([9]; Compound concentration 1.0 uM) was 41%. The inhibition ([9]; Compound concentration 10.0 uM) was 59%, the IC50 [10] was 4.59 µM and the inhibition ([10]; Compound concentration 0.01 uM) was -6%. It also gave an inhibition ([10]; Compound concentration 0.1 uM) of -3%, an inhibition ([10]; Compound concentration 1.0 uM) of 12% and an inhibition ([10]; Compound concentration 10.0 uM) of 74%. The inhibition [11] was -9%, the IC50 [12] was 8.66 µM and the Ki [12] was 6.97 µM. The inhibition ([12]; Compound concentration 0.01 uM) was 11%, the inhibition ([12]; Compound concentration 0.1 uM) was 10% and the inhibition ([12]; Compound concentration 1.0 uM) was -9%. The inhibition ([12]; Compound concentration 10.0 uM) was 69%, the inhibition [13] was 12% and the inhibition [14] was 11%.
